Measurements from patent US20140303144A1, “COMPOUNDS AND METHODS OF TREATING HYPERTENSION” (Medivation Technologies, Inc., priority 2011, published 2014).

Columns and labels:
[1] = molecular target: T1, rat adrenergic α1B receptor obtained from Wistar Rat liver (Rattus norvegicus, UniProt P15823); assay: Adrenergic α1B radioligand binding assay ([3H]Prazosin); details: 0.1 μM compound; read-out: Percentage inhibition of ligand binding, Adrenergic α1B
T1 construct: rat adrenergic α1B receptor obtained from Wistar Rat liver; from tissue; host or cells: Wistar rat liver
T1 sequence (P15823 1-515): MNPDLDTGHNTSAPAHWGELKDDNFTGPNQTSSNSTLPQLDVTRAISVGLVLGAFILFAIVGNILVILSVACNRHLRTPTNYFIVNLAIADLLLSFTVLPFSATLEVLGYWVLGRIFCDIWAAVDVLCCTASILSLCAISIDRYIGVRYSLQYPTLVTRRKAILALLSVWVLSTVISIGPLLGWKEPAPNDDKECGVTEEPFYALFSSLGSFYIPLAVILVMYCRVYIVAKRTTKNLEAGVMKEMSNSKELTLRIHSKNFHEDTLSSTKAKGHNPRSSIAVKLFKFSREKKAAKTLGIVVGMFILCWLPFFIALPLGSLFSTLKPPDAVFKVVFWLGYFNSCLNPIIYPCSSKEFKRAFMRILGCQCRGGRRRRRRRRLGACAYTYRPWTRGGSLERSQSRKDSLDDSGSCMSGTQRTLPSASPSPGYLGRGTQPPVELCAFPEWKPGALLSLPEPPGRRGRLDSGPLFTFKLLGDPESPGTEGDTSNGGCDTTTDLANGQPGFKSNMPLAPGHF
Description: To evaluate in radioligand binding assays the activity of compounds of the invention, rat adrenergic α1B receptor obtained from Wistar Rat liver (Garcia-S'ainz, J. et al, Biochem. Biophys. Res. Commun. 186:760, 1992; Michel, A. et al, Br. J. Pharmacol. 98:883, 1989) in a modified Tris-HCl buffer (50 mM Tris-HCl buffer, pH 7.4, 0.5 mM EDTA) was used. Compounds of the invention were incubated with 0.25 nM [^3H]Prazosin for 60 min at 25° C. Non-specific binding was estimated in the presence of 10 μM phentolamine. Receptor proteins were filtered and washed, the filters were then counted to determine [^3H]Prazosin specifically bound. Compounds were screened at 1 μM or lower, using 1% DMSO as vehicle. Compounds of the invention were tested in this biochemical assay and percent inhibition of specific binding was determined. Biochemical assay results are presented as the percent inhibition of specific binding in Tables B1A-B1D.

SH-SY5Y cells = assay: Cell viability assay (MTS reduction) against 4-Br-A23187 challenge; format: cell-based; details: Homo sapiens, SH-SY5Y, compound 10 nM, 4-Br-A23187 (2 μM) for 24 h, Control = 100, Vehicle = 0, read-out: Relative Cytoprotective capacity
Description: SH-SY5Y cells cultured in DMEM/F12 media supplemented with 10% FBS were seeded in 96-well microplates at 150,000 cells/cm^2. After 24 h, cells were depleted from FBS and kept in culture for 24 h before the experiment. A stock solution was prepared by dissolving the calcium ionophore 4-Br-A23187 (Calbiochem Cat. N^o 100107) in DMSO at 25 mM. Cells were then treated with 4-Br-A23187 (2 μM), hydrogen peroxide (300 μM) or the mitochondrial toxin rotenone (25 μM) in the presence of vehicle or Compound of the Invention for 24 h. Cell death was determined by measurements of LDH release according to the Cytotoxicity Detection KitPlus (Roche, Mannheim, Germany). Cell viability was determined by measuring the capacity of cells to metabolize MTS tetrazolium (MTS) according to the Cytotoxicity Detection KitPlus (Roche, Mannheim, Germany) and MTS reduction was assessed by the CellTiter 96® AQueous One Solution Cell Proliferation assay (Promega Corporation, Madison, Wis., USA). Compounds were screened at 10 nM, using DMSO as vehicle. Assay results for the experiments with Br-A23187 were presented as the MTS reduction capacity (cell viability) of untreated cells (control), 4-Br-A23187-treated cells (vehicle), and co-incubation of Br-A23187 with Compounds of the Invention treated cells and using […] (FCCP) at 10 μM for 30 min as a control. This assay assesses the ability of the test compounds to protect against cell death that was mediated by mitochondrial dysfunction. In the assay, the calcium ionophore 4-Br-A23187 was used to challenge the cells, causing calcium levels to rise in mitochondria, which leads to depolarization and cell death. Test compounds were assessed for their ability to prevent cell death in response to challenge with 4-Br-A23187.

Work on Cc1ccc2c(c1)c1c3n2CC(c2ccncc2)=CCC3(C)CN(C)C1 (stereo not shown) [D11] yielded an inhibition at 0.1 µM [1] of 16% and a viability at 0.01 µM (SH-SY5Y cells) of 30.3%.

Compound C/C(=C\c1cc(C)cc2c3c(n(C)c12)CCN(C)C3)c1ccncc1 [A11] has an inhibition at 0.1 µM [1] of -1% and a viability at 0.01 µM (SH-SY5Y cells) of 37.6%.

With Cc1ccc2c(c1)c1c3n2C(c2ccccc2)CCC3(C)CN(C)C1 (stereo not shown) [D12] the inhibition at 0.1 µM [1] was 10% and the viability at 0.01 µM (SH-SY5Y cells) was 32.5%.

C/C(=C\c1cc(C)cc2c3c(n(C)c12)CCN(C)C3)c1ccc(C)nc1 [A15] gave an inhibition at 0.1 µM [1] of 0%.

Cc1cc(C#Cc2cccs2)c2[nH]c3c(c2c1)CN(C)CC3 [A8] showed an inhibition at 0.1 µM [1] of -3%.

Cc1cc2c3c(c1)c1c(n3CC(C)(c3ccc(C)nc3)OC(C)C2)CCN(C)C1 (stereo not shown) [B160] gave an inhibition at 0.1 µM [1] of 2%.

For Cc1cc(C#Cc2nccs2)c2[nH]c3c(c2c1)CN(C)CC3 [A16], the inhibition at 0.1 µM [1] was 1%.

Cc1ccc2c(c1)c1c3n2C(c2ccccc2)=CCC3(C)CN(C)C1 (stereo not shown) [D10] was tested, and the inhibition at 0.1 µM [1] was -3%.

Cc1cc2c3c(c1)c1c(n3C[C@](C)(c3ccncc3)O[C@H]2C)CCN(C)C1 [B163] gave an inhibition at 0.1 µM [1] of 6%.

For Cc1ccc(C#Cc2cc(Cl)cc3c4c(n(C)c23)CCN(C)C4)cn1 [A18], the inhibition at 0.1 µM [1] was 30% and the viability at 0.01 µM (SH-SY5Y cells) was 26%.

Cc1cc(CCc2ccc(C)nc2)c2c(c1)c1c(n2C)CCN(C)C1 [A13] gave an inhibition at 0.1 µM [1] of -9% and a viability at 0.01 µM (SH-SY5Y cells) of 19.7%.

Cc1cc(-c2ccncc2)c2c(c1)c1c(n2C)CCN(C)C1 [A9] showed an inhibition at 0.1 µM [1] of -9% and a viability at 0.01 µM (SH-SY5Y cells) of 15.8%.

For C#Cc1cc(C)cc2c3c(n(C)c12)CCN(C)C3 [A10], the inhibition at 0.1 µM [1] was 11%.

For Cc1cc(C#Cc2ccc(C)nc2)c2c(c1)c1c(n2C)CCN(C)C1 [A12], the inhibition at 0.1 µM [1] was 2% and the viability at 0.01 µM (SH-SY5Y cells) was 35.7%.

Work on Cc1cc(-c2ccc(F)cc2)c2c(c1)c1c(n2C)CCN(C)C1 [A7] yielded an inhibition at 0.1 µM [1] of 2%.

Cc1cc2c3c(c1)c1c(n3CC(C)(c3ccncc3)OC(C)C2)CCN(C)C1 (stereo not shown) [B165] showed an inhibition at 0.1 µM [1] of 0%.

Cc1cc2c3c(c1)c1c(n3C[C@@](C)(c3ccncc3)O[C@H]2C)CCN(C)C1 [B162] gave an inhibition at 0.1 µM [1] of -6%.

In the case of Cc1cc(/C=C/c2ccc(C)nc2)c2c(c1)c1c(n2C)CCN(C)C1 [A14], the inhibition at 0.1 µM [1] was 0%.

Compound Cc1cc2c3c(c1)c1c(n3C(c3ccccc3)C2)CCN(C)C1 (stereo not shown) [B12] has an inhibition at 0.1 µM [1] of 28%.

Work on Cc1cc(C#Cc2ccncc2)c2c(c1)c1c(n2C)CCN(C)C1 [A17] yielded an inhibition at 0.1 µM [1] of 9% and a viability at 0.01 µM (SH-SY5Y cells) of 10.8%.
